According to publication PMC7961380, “A Systematic Study of the In Vitro Pharmacokinetics and Estimated Human In Vivo Clearance of Indole and Indazole-3-Carboxamide Synthetic Cannabinoid Receptor Agonists Detected on the Illicit Drug Market” (Molecules, 2021):

How the values were obtained:
[1] = Metabolic stability, pooled human liver microsome incubations; settings: for Microsomal Intrinsic Clearance, CLint micr / T1/2: n ≥ 3 ± SD; for T1/2: pHLM 0.5 mg mL^−1, 0.5 µM, NADPH, 37 °C
Experimental: Total incubation volume was 500 µL. Procedure: Test compound working solutions (50 µM in potassium phosphate buffer (pH 7.4)) were prepared (<1% DMSO). pHLM were thawed and diluted in potassium phosphate buffer (pH 7.4). […] Reactions were quenched in 200 µL ACN spiked with donepezil (IS, 50 ng mL^−1). […] Samples were analysed by UPLC-MS/MS in a 96 deep-well 2 mL plate. Each SCRA was incubated at least in triplicate but additional incubations were carried out across a number of analytical batches, giving greater replication and a greater understanding of system variability. Microsomal scaling factors used for human liver microsome incubations in the literature vary. Intrinsic clearance and predicted in vivo clearance rates calculated using alternative scaling factors found in the literature is provided in Section S6 of the supplementary information, to aid comparison of data between publications.
Equations used for in vitro intrinsic clearance calculation and human in vivo clearance […]
The equations used for in vitro intrinsic clearance calculation and human in vivo clearance estimation […]
Microsomal clearance (HLM incubations) in mL min-1 mg microsomal protein-1 [3]
Intrinsic clearance (whole-liver dimensions) (HLM incubations) in mL min-1 kg-1 [3] CL = k x V x [Liver](g) x SF Eqn. 7 […]
mg g microsomal protein-1 [7]
Intrinsic clearance (whole-liver dimensions) (HHep incubations) in mL min-1 kg-1 [4] CL = k x V x hepatocytes/g liver x [Liver](g) Eqn. 8 […]
Where: hepatocytes/g liver = 107x10^6 cells/g liver
Hepatic clearance in mL min-1 kg-1 [3]
[…] Eqn. 9
Where: Q = hepatic blood flow, 21 mL min-1 kg-1 [9]; fu = fraction unbound (plasma); CLint = […]
Estimated human hepatic extraction ratio [5]
Intrinsic clearance data – pooled human liver microsome incubations […]
table S4-28. Intrinsic clearance and predicted in vivo data calculated using alternative microsomal scaling factors found in the literature – 32 [10] and 45 [11] mg microsomal protein per gram liver – are provided in tables S29 and S30, respectively.

[2] = tested on: pooled human cryopreserved hepatocytes (pHHeps); experiment: Metabolic stability, pooled human cryopreserved hepatocyte incubations; settings: for T1/2: pHHeps 0.25 million cells mL^−1, 0.5 µM, 37 °C, n ≥ 3 ± SD
[3] = pHLM, alternative microsomal scaling factor 45 mg microsomal protein per gram liver
[4] = pHHeps, alternative hepatocyte cell density 99x10^6 hepatocytes per gram liver
[5] = pHLM, scaling factor 32 mg microsomal protein per gram liver
[6] = pHLM, scaling factor 45 mg microsomal protein per gram liver
[7] = pHHeps, 99x10^6 hepatocytes per gram liver

COC(=O)C(NC(=O)c1cn(CC2CCCCC2)c2ccccc12)C(C)C (stereo in doubt) [(R)-AMB-CHMICA (9), methyl [1-(cyclohexylmethyl)-1H-indole-3-carbonyl]valinate]
% parent compound remaining, Average ([1]; pHLM, 3 min): 73.0%
% parent compound remaining, Average ([1]; pHLM, 6 min): 53.6%
% parent compound remaining, Average ([1]; pHLM, 9 min): 47.4%
% parent compound remaining, Average ([1]; pHLM, 15 min): 30.4%
% parent compound remaining, Average ([1]; pHLM, 30 min): 11.3%
Microsomal Intrinsic Clearance, CLint micr ([1]; pHLM): 0.167 ± 0.019 mL min^−1 mg Microsomal Protein^−1
% parent compound remaining, Average ([2]; pHHeps, 3 min): 62.7%
% parent compound remaining, Average ([2]; pHHeps, 6 min): 61.2%
% parent compound remaining, Average ([2]; pHHeps, 9 min): 45.1%
% parent compound remaining, Average ([2]; pHHeps, 15 min): 26.7%
% parent compound remaining, Average ([2]; pHHeps, 30 min): 11.8%
% parent compound remaining, Average ([2]; pHHeps, 45 min): 5.9%
% parent compound remaining, Average ([2]; pHHeps, 60 min): 3.2%

COC(=O)C(NC(=O)c1nn(Cc2ccc(F)cc2)c2ccccc12)C(C)C (stereo in doubt) [(R)-AMB-FUBINACA (1), methyl [1-(4-fluorobenzyl)-1H-indazole-3-carbonyl]valinate]
% parent compound remaining, Average ([1]; pHLM, 3 min): 57.2%
% parent compound remaining, Average ([1]; pHLM, 6 min): 46.7%
% parent compound remaining, Average ([1]; pHLM, 9 min): 34.5%
% parent compound remaining, Average ([1]; pHLM, 15 min): 20.5%
% parent compound remaining, Average ([1]; pHLM, 30 min): 6.8%
Microsomal Intrinsic Clearance, CLint micr ([1]; pHLM): 0.237 ± 0.020 mL min^−1 mg Microsomal Protein^−1
% parent compound remaining, Average ([2]; pHHeps, 3 min): 41.1%
% parent compound remaining, Average ([2]; pHHeps, 6 min): 22.5%
% parent compound remaining, Average ([2]; pHHeps, 9 min): 21.4%
% parent compound remaining, Average ([2]; pHHeps, 15 min): 12.3%
% parent compound remaining, Average ([2]; pHHeps, 30 min): 2.7%
% parent compound remaining, Average ([2]; pHHeps, 45 min): 0.9%
% parent compound remaining, Average ([2]; pHHeps, 60 min): 0.8%

O=c1ccc2ccc(O)cc2o1 [7-hydroxycoumarin, reference compound]
intrinsic clearance rate ([2]; pHHeps positive control, range over batches): 46 to 238 min⁻¹ kg⁻¹
% parent compound remaining, Average ([2]; pHHeps, 3 min): 98.6%
% parent compound remaining, Average ([2]; pHHeps, 6 min): 97.5%
% parent compound remaining, Average ([2]; pHHeps, 9 min): 95.7%
% parent compound remaining, Average ([2]; pHHeps, 15 min): 90.8%
% parent compound remaining, Average ([2]; pHHeps, 30 min): 75.8%
% parent compound remaining, Average ([2]; pHHeps, 45 min): 67.2%
% parent compound remaining, Average ([2]; pHHeps, 60 min): 55.8%

CC(C)[C@@H](NC(=O)c1nn(CC2CCCCC2)c2ccccc12)C(N)=O [(R)-AB-[…] (11)] [N-[1-amino-3-methyl-1-oxobutan-2-yl]-1-(cyclohexylmethyl)-1H-indazole-3-carboxamide]
T1/2 [1]: 43 ± 5.0 min
% parent compound remaining, Average ([1]; pHLM, 3 min, […]): 84.0%
% parent compound remaining, Average ([1]; pHLM, 6 min, […]): 84.4%
% parent compound remaining, Average ([1]; pHLM, 9 min, […]): 82.1%
% parent compound remaining, Average ([1]; pHLM, 15 min, […]): 73.6%
% parent compound remaining, Average ([1]; pHLM, 30 min, […]): 59.0%
Intrinsic clearance, CLint ([1]; pHLM, alternative microsomal scaling factor 32 mg microsomal protein per gram liver): 26.9 mL/min/kg
Intrinsic clearance, CLint [1, 3]: 37.8 ± 4.19 mL/min/kg
Microsomal Intrinsic Clearance, CLint micr ([1]; pHLM): 0.033 ± 0.004 mL min^−1 mg Microsomal Protein^−1
T1/2 [2]: 38 ± 8.7 min
% parent compound remaining, Average ([2]; pHHeps, 3 min, […]): 91.3%
% parent compound remaining, Average ([2]; pHHeps, 6 min, […]): 89.8%
% parent compound remaining, Average ([2]; pHHeps, 9 min, […]): 88.6%
% parent compound remaining, Average ([2]; pHHeps, 15 min, […]): 86.6%
% parent compound remaining, Average ([2]; pHHeps, 30 min, […]): 73.0%
% parent compound remaining, Average ([2]; pHHeps, 45 min, […]): 75.2%
% parent compound remaining, Average ([2]; pHHeps, 60 min, […]): 76.2%
Intrinsic clearance, CLint [2, 4]: 197 ± 50.3 mL/min/kg

CCOc1ccc2ccc(=O)oc2c1 [7-ethoxycoumarin, reference compound]
% parent compound remaining, Average ([2]; pHHeps, 3 min): 91.4%
% parent compound remaining, Average ([2]; pHHeps, 6 min): 89.4%
% parent compound remaining, Average ([2]; pHHeps, 9 min): 80.0%
% parent compound remaining, Average ([2]; pHHeps, 15 min): 73.7%
% parent compound remaining, Average ([2]; pHHeps, 30 min): 54.9%
% parent compound remaining, Average ([2]; pHHeps, 45 min): 40.7%
% parent compound remaining, Average ([2]; pHHeps, 60 min): 29.0%
Intrinsic clearance, CLint ([2]; pHHeps, scaled to whole liver, 107x10^6 cells/g liver): 55 to 305 mL/min/kg

COC(=O)C(NC(=O)c1nn(CCCCCF)c2ccccc12)C(C)C (stereo in doubt) [(R)-5F-AMB-PINACA (10), methyl [1-(5-fluoropentyl)-1H-indazole-3-carbonyl]valinate]
% parent compound remaining, Average ([1]; pHLM, 3 min): 64.1%
% parent compound remaining, Average ([1]; pHLM, 6 min): 51.0%
% parent compound remaining, Average ([1]; pHLM, 9 min): 38.0%
% parent compound remaining, Average ([1]; pHLM, 15 min): 21.7%
% parent compound remaining, Average ([1]; pHLM, 30 min): 6.8%
Microsomal Intrinsic Clearance, CLint micr ([1]; pHLM): 0.213 ± 0.014 mL min^−1 mg Microsomal Protein^−1
% parent compound remaining, Average ([2]; pHHeps, 3 min): 69.9%
% parent compound remaining, Average ([2]; pHHeps, 6 min): 35.6%
% parent compound remaining, Average ([2]; pHHeps, 9 min): 28.2%
% parent compound remaining, Average ([2]; pHHeps, 15 min): 12.1%
% parent compound remaining, Average ([2]; pHHeps, 30 min): 3.1%
% parent compound remaining, Average ([2]; pHHeps, 45 min): 0.9%
% parent compound remaining, Average ([2]; pHHeps, 60 min): 0.2%

CC(C)[C@H](NC(=O)c1nn(CC2CCCCC2)c2ccccc12)C(N)=O [(S)-AB-[…] (11)] [N-[1-amino-3-methyl-1-oxobutan-2-yl]-1-(cyclohexylmethyl)-1H-indazole-3-carboxamide]
Predicted In Vivo Hepatic Clearance, CLH ([1]; from pHLM CLint, well-stirred model with plasma fu, Q 21 mL min^−1 kg^−1): 1.77 ± 0.17 mL/min/kg
Hepatic extraction ratio, EH ([1]; from pHLM incubations): 0.08 ± 0.008
% parent compound remaining, Average ([1]; pHLM, 3 min, […]): 76.2%
% parent compound remaining, Average ([1]; pHLM, 6 min, […]): 76.7%
% parent compound remaining, Average ([1]; pHLM, 9 min, […]): 70.6%
% parent compound remaining, Average ([1]; pHLM, 15 min, […]): 61.7%
% parent compound remaining, Average ([1]; pHLM, 30 min, […]): 45.8%
Microsomal Intrinsic Clearance, CLint micr ([1]; pHLM): 0.051 ± 0.005 mL min^−1 mg Microsomal Protein^−1
Hepatic extraction ratio, EH [1, 5]: 0.05 ± 0.005
Predicted in vivo hepatic clearance, CLH [1, 5]: 1.12 ± 0.11 mL/min/kg
Hepatic extraction ratio, EH [1, 6]: 0.08 ± 0.007
Predicted in vivo hepatic clearance, CLH [1, 6]: 1.54 ± 0.15 mL/min/kg
Predicted In Vivo Hepatic Clearance, CLH ([2]; from pHHeps CLint, well-stirred model with plasma fu, Q 21 mL min^−1 kg^−1): 4.52 ± 1.12 mL/min/kg
Hepatic extraction ratio, EH ([2]; from pHHeps incubations): 0.22 ± 0.053
Hepatic extraction ratio, EH [2, 7]: 0.20 ± 0.051
Predicted in vivo hepatic clearance, CLH [2, 7]: 4.26 ± 1.08 mL/min/kg
% parent compound remaining, Average ([2]; pHHeps, 3 min, […]): 96.9%
% parent compound remaining, Average ([2]; pHHeps, 6 min, […]): 85.7%
% parent compound remaining, Average ([2]; pHHeps, 9 min, […]): 81.8%
% parent compound remaining, Average ([2]; pHHeps, 15 min, […]): 88.6%
% parent compound remaining, Average ([2]; pHHeps, 30 min, […]): 65.5%
% parent compound remaining, Average ([2]; pHHeps, 45 min, […]): 63.2%
% parent compound remaining, Average ([2]; pHHeps, 60 min, […]): 53.4%

CC(C)[C@@H](NC(=O)c1nn(Cc2ccc(F)cc2)c2ccccc12)C(N)=O [(R)-AB-FUBINACA (8), N-(1-amino-3-methyl-1-oxobutan-2-yl)-1-(4-fluorobenzyl)-1H-indazole-3-carboxamide]
T1/2 [1]: 145 ± 45 min
% parent compound remaining, Average ([1]; pHLM, 3 min): 89.5%
% parent compound remaining, Average ([1]; pHLM, 6 min): 90.5%
% parent compound remaining, Average ([1]; pHLM, 9 min): 88.4%
% parent compound remaining, Average ([1]; pHLM, 15 min): 82.9%
% parent compound remaining, Average ([1]; pHLM, 30 min): 83.9%
Intrinsic clearance, CLint [1, 3]: 11.8 mL/min/kg
Microsomal Intrinsic Clearance, CLint micr ([1]; pHLM): 0.010 ± 0.003 mL min^−1 mg Microsomal Protein^−1
T1/2 [2]: 69 ± 11 min
% parent compound remaining, Average ([2]; pHHeps, 3 min): 96.7%
% parent compound remaining, Average ([2]; pHHeps, 6 min): 86.5%
% parent compound remaining, Average ([2]; pHHeps, 9 min): 84.9%
% parent compound remaining, Average ([2]; pHHeps, 15 min): 84.4%
% parent compound remaining, Average ([2]; pHHeps, 30 min): 75.2%
% parent compound remaining, Average ([2]; pHHeps, 45 min): 82.9%
% parent compound remaining, Average ([2]; pHHeps, 60 min): 78.8%
Intrinsic clearance, CLint [2, 4]: 105 ± 14.6 mL/min/kg
